# Reference: the COVID Moonshot data (paper PMC11187573), “Identification of SARS-CoV-2 Mpro inhibitors through deep reinforcement learning for de novo drug design and computational chemistry approaches” (RSC Medicinal Chemistry, 2024)
# Tests used:
# [1] = target: SARS-CoV-2 Main Protease (SARS-CoV-2) (UniProt P0DTD1)
# [2] = target: SARS-CoV-2 Main Protease (SARS-CoV-2) (UniProt P0DTD1); remark: listed apart in the source
# Experimental: Compounds were seeded into assay-ready plates (Greiner 384 low volume, cat 784900) using an Echo 555 acoustic dispenser, and DMSO was back-filled for a uniform concentration in assay plates (DMSO concentration maximum 1%) Screening assays were performed in duplicate at 20µM and 50µM. […] Dose response assays were performed in 12 point dilutions of 2-fold, typically beginning at 100µM. […] Reagents for Mpro assay were dispensed into the assay plate in 10µl volumes for a final volume of 20µL.
# Mpro was pre-incubated for 15 minutes at room temperature with compound before addition of substrate and a further 30 minute incubation. Protease reaction was measured in a BMG Pherastar FS with a 480/520 ex/em filter set. Raw data was mapped and normalized to high (Protease with DMSO) and low (No Protease) controls using Genedata Screener software.
smiles,measurement,setting,value
COc1cc(Cl)cc2c1OCC[C@@H]2C(=O)Nc1cncc2ccccc12 (stereo in doubt),IC50,[1],10.2 µM
O=C(Cc1cccc(Cl)c1)Nc1[nH]nc2cccc(F)c12,IC50,[1],81.8 µM
Cc1ccncc1N1CCC(c2cccc(Cl)c2)S1(=O)=O (stereo unspecified),IC50,[1],68.2 µM
O=C1CC(C(=O)Nc2cncc3ccccc23)c2cc(Br)ccc2N1 (stereo unspecified),IC50,[1],1.12 µM
O=C(COc1cccc(Cl)c1)Nc1cncc2ccccc12,IC50,[1],6.02 µM
COc1ccc2nnn(CC(=O)N(Cc3ccccn3)c3ccc(C4CCNCC4)cc3)c2c1,IC50,[1],32.2 µM
same,inhibition,[1]; 50.0 µM,94.8%
Cc1cc2c(c(O)c1-c1c(C)cc(O)c3c1C(=O)C=CC3=O)C(=O)C=CC2=O,IC50,[1],8.41 µM
same,inhibition,[1]; 50.0 µM,100%
O=C(Cc1cccc(Cl)c1)Nc1[nH]nc2cc(F)ccc12,IC50,[1],91.5 µM
O=C(c1cc(=O)[nH]c2ccccc12)N1CCN(Cc2cccc(C(F)(F)F)c2)CC1,inhibition,[1]; 50.0 µM,24.8%
CC12CCCC(O1)c1c(cc3c(c1O)C(=O)c1c(O)cc(O)cc1C3=O)O2 (stereo unspecified),inhibition,[1]; 50.0 µM,26.4%
O=C(c1cc(=O)cc[nH]1)N1CCN(c2cccc(Cl)c2)CC1,IC50,[1],58.9 µM
CC(C)(C)c1ccc(N(C(=O)c2cnc[nH]2)C(C(=O)NCCc2cccc(F)c2)c2cccnc2)cc1 (stereo unspecified),IC50,[1],1.05 µM
same,inhibition,[1]; 50.0 µM,100%
O=C(Nc1cncc2ccccc12)C1CCCc2ccc(Cl)cc21 (stereo unspecified),IC50,[1],0.289 µM
O=C(Cc1cccc(Cl)c1)Nc1nnc2ccccn12,IC50,[1],93.9 µM
O=C(Cc1cccc(Cl)c1)Nc1cccc2[nH]ncc12,IC50,[1],23.6 µM
Cn1c(C(NC(=O)Cc2cc3ccccc3[nH]2)c2cccc(Cl)c2)nc2ccccc21 (stereo unspecified),IC50,[1],31.4 µM
CC(C)(C)c1ccc(N(C(=O)c2ccco2)[C@@H](C(=O)NCCc2cccc(F)c2)c2cccnc2)cc1,inhibition,[1]; 50.0 µM,100%
Cc1ccncc1NC(=O)Cc1cc(Cl)cc(-c2ccc(S(C)(=O)=O)cc2Cl)c1,IC50,[1],19.5 µM
O=C(c1cncc2ccccc12)N1CCN(c2cccc(Cl)c2)CC1,IC50,[1],0.833 µM
COc1ccc2c(NC(=O)Cc3cccc(Cl)c3)[nH]nc2c1,IC50,[1],52 µM
O=C(Cn1nnc2ccccc21)N(Cc1ccccc1)c1ccc(N2CCOCC2)cc1,IC50,[1],18.2 µM
COc1ccc(OCc2ccccc2)cc1-c1cc(=O)c2ccccc2o1,inhibition,[1]; 50.0 µM,7.52%
Cc1nc(CN2C(=O)C(=O)c3cc(Br)ccc32)cs1,IC50,[1],18 µM
O=C(Nc1cncc2ccccc12)C1CCOc2ccc(Br)cc21 (stereo unspecified),inhibition,[1]; 50.0 µM,90.6%
O=C(Cc1cncc2ccccc12)N1CCOc2ccc(Cl)cc21,IC50,[1],3.66 µM
O=C(Cc1cncc2ccccc12)Nc1cccc(Cl)c1,IC50,[1],7.2 µM
O=C(Nc1cncc2ccccc12)C1(CCC2CC2)CCOc2ccc(Cl)cc21 (stereo unspecified),IC50,[1],93.9 µM
Cc1c(C(=O)CCl)c2ccccn2c1C(=O)c1ccc(F)cc1,IC50,[1],0.706 µM
same,inhibition,[1]; 50.0 µM,94.7%
CC(=O)NCc1cc(Cl)cc(CC(=O)Nc2cnccc2C)c1,IC50,[1],55.5 µM
CC(C)(C)C(=O)C(C#N)C(=O)Nc1ccc(Cl)cc1 (stereo unspecified),inhibition,[1]; 50.0 µM,0%
C/C=C1\C(C2(C)CCCC(C)(C)C2)=CCC2C1[C@@H](OC(C)=O)O[C@H]2OC(C)=O (stereo in doubt),inhibition,[1]; 50.0 µM,0%
O=C(c1cc(=O)[nH]c2ccccc12)N1CCN(c2cccc(Cl)c2)CC1,IC50,[1],2.19 µM
same,inhibition,[1]; 50.0 µM,65.7%
O=C(Cn1nnc2ccccc21)N(Cc1cccc(Cl)c1)c1ccc(N2CCOCC2)cc1,IC50,[1],3.79 µM
Cc1ccncc1NC(=O)Cc1cc(Cl)cc(/C=C(/c2ccccc2)C(F)(F)F)c1,IC50,[1],15.3 µM
Cc1ccncc1NC(=O)Cc1cc(Cl)cc(NS(N)(=O)=O)c1,IC50,[1],14.5 µM
same,inhibition,[1]; 50.0 µM,87.9%
O=C(Cc1cccc(Cl)c1)Nc1cncc2c1CCC2,IC50,[1],4.65 µM
COc1cccc2[nH]c(=O)cc(C(=O)N3CCN(c4cccc(Cl)c4)CC3)c12,IC50,[1],1.84 µM
Cc1ccncc1NC(=O)Cc1cc(Cl)cc(OCc2ncn[nH]2)c1,IC50,[1],81 µM
O=C(Nc1cccc(F)c1)[C@@H](c1ccccc1)N1Cc2ccccc2C1=O (stereo in doubt),IC50,[1],59.9 µM
CN(C)c1ccc(N(Cc2ccccc2)C(=O)Cn2nnc3ccccc32)cc1,IC50,[1],1.57 µM
O=C(CC(C[S][Au])C(=O)[O][Na])[O][Na] (stereo unspecified),inhibition,[1]; 50.0 µM,39.1%
COc1ccc(Cl)cc1OCCNC(=O)c1cc(=O)[nH]c2ccccc12,IC50,[1],0.692 µM
COc1c(Cl)cccc1OCCNC(=O)c1cc(=O)[nH]c2ccccc12,IC50,[1],16.5 µM
O=C(Nc1cc(=O)[nH]c2ccccc12)C1CCOc2ccc(Cl)cc21 (stereo unspecified),IC50,[1],48 µM
Cc1ccncc1NC(=O)Cc1cc(Cl)cc(-c2ccc(C3CC3(F)F)cc2)c1 (stereo unspecified),IC50,[1],2.83 µM
CCN(c1ccccc1)S(=O)(=O)c1ccc(OC)c(NC(=O)CCl)c1,IC50,[1],6.96 µM
same,inhibition,[1]; 50.0 µM,61.2%
Cc1ccncc1NC(=O)Cc1cc(C#N)cc(OC2CC(=O)N2)c1 (stereo unspecified),IC50,[1],8.63 µM
COc1ccc2c(=O)c(O)c(-c3ccc(OCc4ccccc4)c(OCc4ccccc4)c3)oc2c1,inhibition,[1]; 50.0 µM,14.1%
N#Cc1ncn(CC(=O)Nc2ccc(Br)cc2Cl)n1,IC50,[1],2.87 µM
O=C(CCc1cccc(Cl)c1)Nc1cncc2ccccc12,IC50,[1],19.3 µM
O=C(Nc1n[nH]c2ccnc(Br)c12)C1CCOc2ccc(Cl)cc21 (stereo unspecified),IC50,[1],74.2 µM
Cc1ccc(NC2=C(c3ccccc3)C(=O)N(Cc3cccnc3)C2=O)cc1C,IC50,[1],43.5 µM
Cc1ccncc1NC(=O)Cc1cc(Cl)cc(NC2CCC(F)(F)C2O)c1 (stereo unspecified),IC50,[1],25.7 µM
Cc1ccc(NC2=C(c3ccccc3)C(=O)N(Cc3cccnc3)C2=O)c(C)c1,IC50,[1],54.6 µM
CC(=O)N1CCN(Cc2cccs2)CC1,inhibition,[1]; 20.0 µM,96.7%
same,inhibition,[1]; 50.0 µM,95.7%
COc1ccc(Cl)cc1OCCNC(=O)c1cc(=O)[nH]c2cccc(OC)c12,IC50,[1],0.19 µM
O=C(CN(C(=O)Cc1cccnc1)c1ccc(-c2ncccn2)cc1)N1CCNCC1,inhibition,[1]; 50.0 µM,0%
Cc1c(N)cncc1NC(=O)Cc1cccc(C#N)c1,IC50,[1],32.2 µM
O=C(Cc1cccc(Cl)c1)N[C@H]1CCNC1=O (stereo in doubt),inhibition,[1]; 50.0 µM,0%
Cc1ccncc1NC(=O)Cc1cc(Cl)cc(OC2COC2)c1,IC50,[1],15.3 µM
Cc1ccncc1NC(=O)Cc1cc(Cl)cc(S(N)(=O)=O)c1,IC50,[1],13.1 µM
same,inhibition,[1]; 50.0 µM,64%
Cc1ccncc1NC(=O)C(CO)c1cccc(Cl)c1 (stereo unspecified),IC50,[1],47.3 µM
CN(CC(=O)Nc1ccccc1Br)C(=O)CCl,inhibition,[1]; 50.0 µM,52.3%
O=c1cc(-c2ccc(OCc3ccccc3)cc2)oc2ccccc12,inhibition,[1]; 50.0 µM,35.9%
COc1ccccc1OCCC(=O)Nc1cncc2ccccc12,IC50,[1],85.4 µM
O=C(O)c1cn(-c2ccc(F)cc2)c2cc(N3CCNCC3)c(F)cc2c1=O,inhibition,[1]; 50.0 µM,20%
Cc1oncc1C(=O)Nc1ccc(C(F)(F)F)cc1,inhibition,[1]; 50.0 µM,0%
Cc1ccncc1NC(=O)Cc1cc(Cl)cc(NCC(C)(C)C#N)c1,IC50,[1],32.9 µM
C[N+]1=C2C=C(NCCc3ccc(O)cc3)C(=O)c3[nH]cc(c32)CC1,inhibition,[1]; 50.0 µM,2.74%
CC(C)(C)c1ccc(N(C(=O)c2ccco2)[C@H](C(=O)NCCc2cccc(F)c2)c2cccnc2)cc1,inhibition,[1]; 50.0 µM,100%
CCN(CC)S(=O)(=O)c1ccc(NC(=O)Nc2cn(C)c(=O)c3ccccc23)cc1,inhibition,[2]; 20.0 µM,0.771%
same,inhibition,[2]; 50.0 µM,-1.21%
COC[C@@]1(C(=O)Nc2cncc3ccccc23)CCOc2cc(Cl)c(Cl)cc21 (stereo in doubt),IC50,[2],16.9 µM
COc1ncc(Br)cc1Nc1cc(Cl)cc(CC(=O)Nc2cncc3ccccc23)c1,IC50,[2],0.681 µM
CCOC(=O)Cc1csc(NC(=O)Nc2cn(CC(C)C)c(=O)c3ccccc23)n1,inhibition,[2]; 20.0 µM,23.2%
same,inhibition,[2]; 50.0 µM,2.55%
CC(C)Cn1cc(NC(=O)Nc2cccnc2)c2ccccc2c1=O,inhibition,[2]; 20.0 µM,6.1%
same,inhibition,[2]; 50.0 µM,6.63%
Cc1cccnc1NC(=O)Nc1cn(CC(C)C)c(=O)c2ccccc12,inhibition,[2]; 20.0 µM,-0.204%
same,inhibition,[2]; 50.0 µM,-1.16%
CC1(C)CN(C(=O)c2ccc(-c3cccc4nc(NC(=O)C5CC5)nn34)cc2)C1,inhibition,[2]; 20.0 µM,-1.13%
same,inhibition,[2]; 50.0 µM,0.838%
CCOC(=O)c1ccc(NC(=O)Nc2cn(C)c(=O)c3ccccc23)cc1,inhibition,[2]; 20.0 µM,17.1%
same,inhibition,[2]; 50.0 µM,4.9%
CC(NC(=O)c1cc2n(n1)CCO2)(C(=O)Nc1cncc2ccccc12)c1ccc(Cl)c(Cl)c1 (stereo unspecified),IC50,[2],8.52 µM
COC(=O)c1sccc1NC(=O)Nc1cn(CC(C)C)c(=O)c2ccccc12,inhibition,[2]; 20.0 µM,-3.98%
same,inhibition,[2]; 50.0 µM,-0.958%
Cc1ccncc1CC(=O)Nc1cccc2c1CNCC2,inhibition,[2]; 20.0 µM,-1.08%
same,inhibition,[2]; 50.0 µM,2.76%
Cc1[nH]c2ncnc(NC(=O)c3cccc4c3oc(=O)n4C)c2c1C,inhibition,[2]; 20.0 µM,2.86%
same,inhibition,[2]; 50.0 µM,6.1%
CC(C)Cn1cc(NC(=O)NC2CCCCCC2)c2ccccc2c1=O,inhibition,[2]; 20.0 µM,4.79%
same,inhibition,[2]; 50.0 µM,2.3%
Cn1cc(NC(=O)NCCc2ccc(Cl)cc2)c2ccccc2c1=O,inhibition,[2]; 20.0 µM,-6.47%
same,inhibition,[2]; 50.0 µM,-3.22%
Cn1cc(NC(=O)N2CCN(C(=O)c3ccco3)CC2)c2ccccc2c1=O,inhibition,[2]; 20.0 µM,-4.83%
same,inhibition,[2]; 50.0 µM,-2.88%
COc1cc(Cl)c(C)cc1NC(=O)Nc1cn(CC(C)C)c(=O)c2ccccc12,inhibition,[2]; 20.0 µM,5.7%
same,inhibition,[2]; 50.0 µM,9.03%
NC(=O)C[S@@+]([O-])C(c1ccccc1)c1ccccc1 (stereo in doubt),inhibition,[2]; 20.0 µM,-1.76%
same,inhibition,[2]; 50.0 µM,-1.92%
O=C(N[C@@H](Cc1cc(=O)[nH]c2ccccc12)C(=O)O)c1ccc(Cl)cc1 (stereo in doubt),inhibition,[2]; 20.0 µM,1.24%
same,inhibition,[2]; 50.0 µM,-22.3%
COc1cc(OC)nc(O[C@H](C(=O)O)C(OC)(c2ccccc2)c2ccccc2)n1 (stereo in doubt),inhibition,[2]; 20.0 µM,-28.4%
same,inhibition,[2]; 50.0 µM,2.42%
CC(C)Cn1cc(NC(=O)NCCC2=CCCCC2)c2ccccc2c1=O,inhibition,[2]; 20.0 µM,25.7%
same,inhibition,[2]; 50.0 µM,0.931%
Cn1c(-c2ccc(NC(=O)C3CCCCC(=O)N3)cc2)nc2ccccc21 (stereo unspecified),inhibition,[2]; 20.0 µM,-3.33%
same,inhibition,[2]; 50.0 µM,-2.97%
Cc1ccc(NC(=O)Nc2cn(CC(C)C)c(=O)c3ccccc23)c(Br)c1,inhibition,[2]; 20.0 µM,8.16%
same,inhibition,[2]; 50.0 µM,9.66%
COc1ccc(N2C(=O)CCS2(=O)=O)cc1S(=O)(=O)Nc1cccc2cccnc12,inhibition,[2]; 20.0 µM,65.3%
same,inhibition,[2]; 50.0 µM,37.4%
O=C(O)CNC(=O)c1ncc(-c2cccc(Cl)c2)cc1O,inhibition,[2]; 20.0 µM,1.43%
same,inhibition,[2]; 50.0 µM,-1.75%
CC(C)Cn1cc(NC(=O)NCCCN2CCCC2=O)c2ccccc2c1=O,inhibition,[2]; 20.0 µM,-2.54%
same,inhibition,[2]; 50.0 µM,3.77%
C=CC(=O)N(c1ccc(CCC#N)cc1)C(C(=O)NC(C)(C)C)c1cccnc1 (stereo unspecified),inhibition,[2]; 20.0 µM,1.48%
same,inhibition,[2]; 50.0 µM,3.3%
Cc1ccncc1NC(=O)Cc1ccc2[nH]ncc2c1,inhibition,[2]; 20.0 µM,-1.11%
same,inhibition,[2]; 50.0 µM,0.248%
CCN(Cc1ccc(F)cc1)c1cc(Cl)cc(CC(=O)Nc2cncc3ccccc23)c1,IC50,[2],1.41 µM
